According to PMC5986654, “Combined HAT/EZH2 modulation leads to cancer-selective cell death” (Oncotarget, 2018):

Tests used:
HCT116 colon carcinoma = HCT116 colon carcinoma xenograft, tumor volume; format: in vivo, mice; conditions: 10 mg/Kg i.p., day 19
Protocol: HCT116 cell line was grown in McCoy’s medium, supplemented with 10% inactivated FBS, 2 mM glutamine and standard concentration of antibiotics. 7- to 8-week-old male CD1 nude athymic mice were purchased from Charles River and under pathogen-free conditions in accordance with European Directives no. 2010/63 and with Italian D.L. 26/2014. Mice were injected subcutaneously into the right flank with 4 × 10^6 of HCT116 cells; tumor volume (mm^3) was evaluated three times a week by caliper using the formula Dmax x dmin^^2/2, where ‘d’ and ‘D’ are the shortest and the longest diameters, respectively. For all experiments, mice were randomly divided (n = 7) and intra-peritoneal injected by day five every day with: vehicle sesame oil/DMSO 6%; MC2884 10 mg/Kg in sesame oil/DMSO 6%. Mice were sacrificed after 20 days of drug treatment and tumors explanted for immunohistochemical analyses. For HCT116-DKO colon cancer, 6 × 10^6 cells were injected.

CBP = CBP (Homo sapiens, UniProt Q92793); test: HAT in vitro assay, 10-dose IC50, CBP; format: biochemical; conditions: substrate Histone H3, 3 μM Acetyl-CoA; read-out: Compound IC50 CBP
Sequence of CBP (Q92793 whole entry): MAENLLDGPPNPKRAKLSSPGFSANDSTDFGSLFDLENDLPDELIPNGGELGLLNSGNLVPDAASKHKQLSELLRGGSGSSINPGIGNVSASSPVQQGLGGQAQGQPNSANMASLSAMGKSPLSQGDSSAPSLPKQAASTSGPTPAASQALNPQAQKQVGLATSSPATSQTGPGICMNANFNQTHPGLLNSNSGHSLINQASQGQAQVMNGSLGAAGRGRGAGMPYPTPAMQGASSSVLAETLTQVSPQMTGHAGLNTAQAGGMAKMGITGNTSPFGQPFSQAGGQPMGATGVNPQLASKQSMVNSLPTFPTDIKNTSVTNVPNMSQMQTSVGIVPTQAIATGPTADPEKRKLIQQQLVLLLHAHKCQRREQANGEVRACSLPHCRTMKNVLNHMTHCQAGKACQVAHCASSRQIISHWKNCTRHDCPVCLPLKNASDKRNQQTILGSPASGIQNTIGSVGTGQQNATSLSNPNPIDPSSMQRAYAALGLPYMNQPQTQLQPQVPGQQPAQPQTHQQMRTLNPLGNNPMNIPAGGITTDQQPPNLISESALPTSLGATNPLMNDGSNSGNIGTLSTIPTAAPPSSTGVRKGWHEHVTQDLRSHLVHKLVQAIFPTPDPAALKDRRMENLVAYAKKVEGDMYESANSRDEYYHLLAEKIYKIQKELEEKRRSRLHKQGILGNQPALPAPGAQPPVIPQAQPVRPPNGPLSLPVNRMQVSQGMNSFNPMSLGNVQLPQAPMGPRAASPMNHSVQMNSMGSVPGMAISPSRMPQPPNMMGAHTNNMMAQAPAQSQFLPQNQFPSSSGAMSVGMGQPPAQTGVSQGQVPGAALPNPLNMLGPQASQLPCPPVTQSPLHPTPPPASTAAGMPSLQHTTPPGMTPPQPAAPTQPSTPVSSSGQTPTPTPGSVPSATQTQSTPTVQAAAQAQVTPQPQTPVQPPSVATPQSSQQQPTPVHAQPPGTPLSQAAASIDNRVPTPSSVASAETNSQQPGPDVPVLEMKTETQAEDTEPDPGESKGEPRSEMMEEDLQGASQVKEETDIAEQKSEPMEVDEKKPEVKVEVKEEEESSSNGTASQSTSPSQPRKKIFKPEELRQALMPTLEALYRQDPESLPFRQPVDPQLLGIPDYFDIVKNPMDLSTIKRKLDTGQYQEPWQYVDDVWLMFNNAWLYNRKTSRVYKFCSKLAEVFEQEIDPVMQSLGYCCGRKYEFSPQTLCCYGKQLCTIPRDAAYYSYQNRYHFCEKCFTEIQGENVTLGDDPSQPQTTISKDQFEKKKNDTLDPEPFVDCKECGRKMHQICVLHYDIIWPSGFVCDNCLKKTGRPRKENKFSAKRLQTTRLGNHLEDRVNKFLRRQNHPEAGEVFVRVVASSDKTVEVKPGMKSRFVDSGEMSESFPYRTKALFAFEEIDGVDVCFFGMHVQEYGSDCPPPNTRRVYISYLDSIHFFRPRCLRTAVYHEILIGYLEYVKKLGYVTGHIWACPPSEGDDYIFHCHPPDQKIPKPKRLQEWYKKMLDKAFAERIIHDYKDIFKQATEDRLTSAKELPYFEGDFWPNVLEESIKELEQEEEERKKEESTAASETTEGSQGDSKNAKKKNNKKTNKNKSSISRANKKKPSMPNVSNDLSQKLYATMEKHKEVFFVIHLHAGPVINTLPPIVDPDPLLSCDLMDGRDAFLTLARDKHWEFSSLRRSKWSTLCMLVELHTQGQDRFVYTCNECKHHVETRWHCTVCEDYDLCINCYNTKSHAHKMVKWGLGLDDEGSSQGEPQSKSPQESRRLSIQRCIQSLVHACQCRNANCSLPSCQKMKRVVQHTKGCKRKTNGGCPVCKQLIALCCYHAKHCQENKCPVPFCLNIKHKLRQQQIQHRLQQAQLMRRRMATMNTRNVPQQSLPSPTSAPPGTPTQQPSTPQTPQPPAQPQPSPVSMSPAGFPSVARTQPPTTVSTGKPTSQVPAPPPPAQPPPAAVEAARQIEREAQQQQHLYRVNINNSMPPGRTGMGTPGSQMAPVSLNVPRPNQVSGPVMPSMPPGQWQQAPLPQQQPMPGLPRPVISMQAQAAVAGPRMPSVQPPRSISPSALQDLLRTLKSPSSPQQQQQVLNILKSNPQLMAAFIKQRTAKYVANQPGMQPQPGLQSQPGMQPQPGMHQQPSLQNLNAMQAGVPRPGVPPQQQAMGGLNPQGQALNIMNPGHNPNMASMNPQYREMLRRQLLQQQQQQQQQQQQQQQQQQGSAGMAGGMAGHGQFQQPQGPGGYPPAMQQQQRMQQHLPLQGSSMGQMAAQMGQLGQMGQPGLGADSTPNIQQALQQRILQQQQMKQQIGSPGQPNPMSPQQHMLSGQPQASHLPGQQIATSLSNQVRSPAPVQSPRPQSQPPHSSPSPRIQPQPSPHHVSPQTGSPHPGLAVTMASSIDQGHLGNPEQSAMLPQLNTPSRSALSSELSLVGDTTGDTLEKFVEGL
Protocol: For HAT in vitro assay, MC2884 activity was also tested in vitro and IC50 was calculated as indicated in the scheme. […] Reactions were carried out at 3 μM Acetyl-CoA. Empty cells indicate no inhibition or compound activity that could not be fit to an IC50 curve.

U937 cells = test: U937 leukemia xenograft, human CD45+ cells in bone marrow; format: in vivo, mice; conditions: 1 mg/kg i.p., day 16
Protocol: Xenograft studies using NB4 and U937-AML cells were performed in NOG SCID mice under specific pathogen–free conditions. Cells (0.2 × 10^6 in 100 µL) were injected intravenously (retro orbital vein). Injected mice were randomly assigned to receive intra-peritoneal MC2884 (1 mg/kg) or vehicle for two weeks (8 doses) (10 mice per group). All animal procedures were performed in accordance with protocols approved by the local Committee for Animal Experimentation and with the permission of the Italian Health Ministry (n° 626/2015). At 16 days after injection, mice were sacrificed and the femurs and spleens were collected. Bone marrow (BM) and spleen cells were analyzed by FACS. To avoid non-specific stain, cells were mixed with mouse IgG and incubated with indicated antibodies for 30’. The mixture was depleted of erythrocytes and fixed (BD Pharmingen). […] Tumor growth was monitored by weekly bioluminescence imaging (BLI) acquisitions using an IVIS 3D Imaging System (Caliper Alameda, USA). To quantify bioluminescence, the integrated fluxes of photons (photons per s) within each area of interest were determined using the Living Images Software Package 3.2 (Caliper, Alameda, USA). […] Efficacy of drug treatment was assessed as inhibition of BLI emission comparing those MC2884 treated mice group and vehicle groups.

MePR2B = test: Cytotoxic effect on mesenchymal progenitor model MePR2B; format: cell-based; conditions: immortalized non-cancer cells

SMILES: O=C1/C(=C/c2cccc(Br)c2)CN(Cc2ccccc2)C/C1=C\c1cccc(Br)c1 [MC2884]
- tumor volume reduction versus untreated mice (HCT116 colon carcinoma): 90%
- IC50 (CBP): 3.27 µM
- human CD45+ cells in the bone marrow reduced to (U937 cells): 24%
- cytotoxic effect on MePR2B (MePR2B): insensitive
